Laboratory results as given in ChEMBL document CHEMBL1201862, “PubChem BioAssay data set” (2004).
Calls of active or inactive are those of the source.

Key:
[1] = biological target: Serine/threonine-protein phosphatase (Homo sapiens, UniProt Q9BPW0); assay: PP5 phosphatase inhibitors, dose response, biochemical, fluorescence (AID 2395)
[2] = growth suppression of beta-catenin-knockout colon cells, dose response, cell-based, HCT116, human colon tumor (AID 1045); type: functional;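 also: HCT116 colon tumor cells with beta catenin knocked out; cells exposed to compound for 60 hours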
[3] = biological target: T1, Apoptotic protease-activating factor 1 (Homo sapiens, UniProt O14727); type: functional
T1 sequence (O14727 whole entry): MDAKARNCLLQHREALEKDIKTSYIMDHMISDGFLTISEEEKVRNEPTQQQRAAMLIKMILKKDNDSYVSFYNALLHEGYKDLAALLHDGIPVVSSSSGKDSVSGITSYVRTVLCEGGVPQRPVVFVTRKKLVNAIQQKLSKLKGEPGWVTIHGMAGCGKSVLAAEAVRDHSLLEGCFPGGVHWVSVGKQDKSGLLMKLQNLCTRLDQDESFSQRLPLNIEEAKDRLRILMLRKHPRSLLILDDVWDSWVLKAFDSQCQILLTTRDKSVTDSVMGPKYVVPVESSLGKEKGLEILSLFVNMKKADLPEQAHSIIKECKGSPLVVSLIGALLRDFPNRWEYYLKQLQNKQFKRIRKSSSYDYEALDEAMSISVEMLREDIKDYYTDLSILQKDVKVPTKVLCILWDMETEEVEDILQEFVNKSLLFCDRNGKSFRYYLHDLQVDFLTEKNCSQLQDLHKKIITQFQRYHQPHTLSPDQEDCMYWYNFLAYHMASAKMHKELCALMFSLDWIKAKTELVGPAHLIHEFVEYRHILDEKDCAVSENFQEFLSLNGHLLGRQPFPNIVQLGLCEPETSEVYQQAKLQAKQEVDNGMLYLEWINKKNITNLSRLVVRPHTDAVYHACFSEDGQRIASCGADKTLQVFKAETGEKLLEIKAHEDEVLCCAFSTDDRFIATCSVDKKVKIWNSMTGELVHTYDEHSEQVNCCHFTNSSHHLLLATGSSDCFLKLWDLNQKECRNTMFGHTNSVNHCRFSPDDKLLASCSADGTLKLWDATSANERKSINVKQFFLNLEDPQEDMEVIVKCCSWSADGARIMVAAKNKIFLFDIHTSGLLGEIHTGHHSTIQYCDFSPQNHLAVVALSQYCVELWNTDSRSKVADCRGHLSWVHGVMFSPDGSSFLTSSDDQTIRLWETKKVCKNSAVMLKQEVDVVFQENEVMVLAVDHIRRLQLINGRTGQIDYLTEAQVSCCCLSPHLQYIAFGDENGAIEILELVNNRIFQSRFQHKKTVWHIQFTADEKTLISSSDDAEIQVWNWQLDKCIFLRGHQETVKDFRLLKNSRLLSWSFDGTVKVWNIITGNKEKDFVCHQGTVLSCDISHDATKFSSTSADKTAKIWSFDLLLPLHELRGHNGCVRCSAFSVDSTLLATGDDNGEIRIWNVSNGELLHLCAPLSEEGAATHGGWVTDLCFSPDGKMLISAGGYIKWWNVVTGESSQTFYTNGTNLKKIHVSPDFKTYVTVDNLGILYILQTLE

Caspase-3 = biological target: T2, Caspase-3 (Homo sapiens, UniProt P42574); assay: SAR Analysis of small molecule inhibitors of Sentrin-specific proteases (SENPs) using a Caspase-3 Selectivity assay. [Related pubchem assays (depositor defined):AID2540, AID2599, AID434973, AID489001]; type: functional
T2 sequence (P42574 whole entry): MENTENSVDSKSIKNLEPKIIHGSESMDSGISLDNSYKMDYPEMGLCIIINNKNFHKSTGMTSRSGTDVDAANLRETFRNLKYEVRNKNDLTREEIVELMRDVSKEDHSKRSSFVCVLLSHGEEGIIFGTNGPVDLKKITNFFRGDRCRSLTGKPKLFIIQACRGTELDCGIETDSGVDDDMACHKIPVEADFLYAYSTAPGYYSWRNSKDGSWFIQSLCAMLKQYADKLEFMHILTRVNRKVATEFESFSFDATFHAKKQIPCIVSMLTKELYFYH

Sequence of Serine/threonine-protein phosphatase (Q9BPW0 whole entry): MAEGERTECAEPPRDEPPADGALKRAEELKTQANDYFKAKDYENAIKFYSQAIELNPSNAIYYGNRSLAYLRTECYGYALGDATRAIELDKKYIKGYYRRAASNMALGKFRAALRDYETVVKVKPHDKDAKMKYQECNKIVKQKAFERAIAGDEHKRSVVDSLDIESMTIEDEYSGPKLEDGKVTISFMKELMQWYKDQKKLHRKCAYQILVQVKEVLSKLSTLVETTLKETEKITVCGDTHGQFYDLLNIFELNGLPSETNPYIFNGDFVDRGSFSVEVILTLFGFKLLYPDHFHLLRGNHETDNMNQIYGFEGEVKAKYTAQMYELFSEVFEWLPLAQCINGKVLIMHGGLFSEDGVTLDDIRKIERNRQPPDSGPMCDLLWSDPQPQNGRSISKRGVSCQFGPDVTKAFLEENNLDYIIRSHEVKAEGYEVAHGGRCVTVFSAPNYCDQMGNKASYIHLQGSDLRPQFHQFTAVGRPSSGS

In the case of `Oc1cccc(/C=N/Nc2cc(N3CCCC3)nc(N3CCCC3)n2)c1`, the IC50 [1] is reported as 5.83 µM (active), the EC50 [2] is reported as 18.8 µM (active) and the IC50 [3] is reported as 1.84 µM (active). For the same molecule, the IC50 (Caspase-3) was > 99 µM (inactive).
